Measured values: publication PMC7600710, “The Inhibition of Serine/Threonine Protein Phosphatase Type 5 Mediates Cantharidin Toxicity to Control Periplaneta americana (L.)” (Insects, 2020)

Columns and labels:
[1] = biological target: T1, serine/threonine protein phosphatase type 5 (PaPP5), catalytic domain PaPP5c (Periplaneta americana, UniProt A0A3Q9NNI4); experiment: DiFMUP fluorescence phosphatase inhibition assay on purified recombinant PaPP5c; format: biochemical
T1 construct: gene PP5; catalytic domain of PP5 (167-489 amino acids, PP5c), His-tagged, expressed in E. coli; full-length GenBank AZT88974.1
T1 sequence (A0A3Q9NNI4 167-489): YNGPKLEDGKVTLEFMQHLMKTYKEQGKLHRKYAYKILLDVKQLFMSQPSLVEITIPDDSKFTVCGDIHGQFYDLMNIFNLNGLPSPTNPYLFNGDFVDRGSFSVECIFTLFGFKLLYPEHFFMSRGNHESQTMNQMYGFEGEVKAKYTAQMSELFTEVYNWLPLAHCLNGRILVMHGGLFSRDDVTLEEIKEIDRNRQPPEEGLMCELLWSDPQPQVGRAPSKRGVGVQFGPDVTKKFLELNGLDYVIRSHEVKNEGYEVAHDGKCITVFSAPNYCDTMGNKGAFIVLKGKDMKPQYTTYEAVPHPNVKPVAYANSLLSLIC

[2] = substrate: Cc1cc(=O)oc2c(F)c(OP(=O)(O)O)c(F)cc12; experiment: purified protein; conditions: Mn2+ (MnCl2 in expression, dialysis and assay buffer)

Q: How did the IC50 [1] turn out when `C[C@@]12C(=O)OC(=O)[C@]1(C)[C@H]1CC[C@@H]2O1` [Cantharidin] was run?
A: The IC50 was 390 ± 40 nM.

Q: How did the IC50 [1] turn out when `O=C1OC(=O)[C@H]2[C@@H]1[C@@H]1CC[C@H]2O1` [Norcantharidin] was run?
A: Its IC50 is 1870 ± 230 nM.

B1: serine/threonine protein phosphatase type 5 (PaPP5), catalytic domain PaPP5c (Periplaneta americana) (protein)
chain: YNGPKLEDGKVTLEFMQHLMKTYKEQGKLHRKYAYKILLDVKQLFMSQPSLVEITIPDDSKFTVCGDIHGQFYDLMNIFNLNGLPSPTNPYLFNGDFVDRGSFSVECIFTLFGFKLLYPEHFFMSRGNHESQTMNQMYGFEGEVKAKYTAQMSELFTEVYNWLPLAHCLNGRILVMHGGLFSRDDVTLEEIKEIDRNRQPPEEGLMCELLWSDPQPQVGRAPSKRGVGVQFGPDVTKKFLELNGLDYVIRSHEVKNEGYEVAHDGKCITVFSAPNYCDTMGNKGAFIVLKGKDMKPQYTTYEAVPHPNVKPVAYANSLLSLIC
Q: Which Km [2] does the source give for B1 here?
A: Its Km is 144.10 ± 9.730 µM.
